# Assay results from patent publication US20210138025A1, “CATIONIC PEPTIDES WITH IMMUNOMODULATORY AND/OR ANTI-BIOFILM ACTIVITIES” (priority 2018, published 2021).
# Non-standard residues stand in square brackets, D forms with d. No end group written: not given here. Orn = NCCC[C@H](N)C(=O)O
# Legend:
# PBMCs = experiment: Cytotoxicity towards PBMCs, lactate dehydrogenase (LDH) release assay (Tables 6, 7); conditions: SPOT synthesized peptide ~25 μM, PBMCs from 3 human donors; Table 6
# S. aureus (MRSA SAP0017) = format: cell-based, Staphylococcus aureus
# Method: Methods of assessment of anti-biofilm activity: MRSA S. aureus strain SAP0017 biofilm formation was initially analyzed using a static abiotic solid surface assay as described elsewhere (de la Fuente-Nunez et al., 2012) and shown graphically in FIG. 2. Dilutions (1/100) of overnight cultures were incubated in BM2 biofilm-adjusted medium [62 mM potassium phosphate buffer (pH 7), 7 mM (NH4)2SO4, 2 mM MgSO4, 10 μM FeSO4, 0.4% (wt/vol) glucose, 0.5% (wt/vol) Casamino Acids], or a nutrient rich medium such as Tryptic soy broth supplemented with 1% glucose, in polypropylene microtiter plates (Falcon, United States) in the absence (control) or presence of peptide. Peptide was added at time zero (prior to adding the diluted, overnight cultures) in varying concentrations, and the amount biofilm formation was recorded after 22-46 h incubation for most bacteria. To quantify biofilm growth, planktonic cells were removed and biofilm cells adhering to the side of the wells were stained with crystal violet, and absorbance at 595 nm was measured using a microtiter plate reader (Bio-Tek Instruments Inc., United States).
# [1] = test system: planktonic methicillin resistant S. aureus; experiment: microbe, parasite or virus in culture; format: cell-based, Staphylococcus aureus; conditions: planktonic methicillin resistant S. aureus, mean of three biological replicates
Substance,% Toxicity (LDH Release) (PBMCs),further results
"GRVLKIVWRKGR-NH2 [Mmax-3, GRVLKIVWRKGR]",4.2%,–
"IKWVLRKIVQII-NH2 [IBFmax-17, IKWVLRKIVQII]",3.6%,–
"IQLKLIWVKRKW-NH2 [MILBFmax5, IQLKLIWVKRKW]",−1.3%,–
"IRILVLRKAIIV-NH2 [MILBFmax-9, IRILVLRKAIIV]",23.9%,–
"IVKKVKLIWGVK-NH2 [MILBFmax-13, IVKKVKLIWGVK]",−3.2%,–
IVKWIAQWKLVG-NH2 [Imax- 10],−1%,–
"KIWGLLKLGIAL-NH2 [Imax-6, KIWGLLKLGIAL]",1.1%,–
KKQKKIWRRILV-NH2 [Mmax- 16],1.8%,–
"KRLQWVKVKKIR-NH2 [BFmax-16, KRLQWVKVKKIR]",0.6%,–
"KVQIIKQLIAKK-NH2 [BFmax-7, KVQIIKQLIAKK]",−3.9%,–
"KVVWWKVIIKVL-NH2 [BFmax-2, KVVWWKVIIKVL]",−3.5%,–
"LKLKAILKIIRV-NH2 [MILBFmax-1, LKLKAILKIIRV]",1.5%,–
"QIIKVVWRAVII-NH2 [MILBFmax-8, QIIKVVWRAVII]",−2.3%,–
"QQVKWWLIRWLA-NH2 [IBFmax-11, QQVKWWLIRWLA]",−0.1%,–
"RARQIRWLRKRV-NH2 [Imin-4, RARQIRWLRKRV]",−4.9%,–
RQVRVKRWRARW-NH2 [Mmax- 18],−4.9%,–
"RVLIKWKKVIVV-NH2 [IBFmax-8, RVLIKWKKVIVV]",−1.8%,–
"VARWKIIIAKLW-NH2 [BFmax-5, VARWKIIIAKLW]",2%,–
"VIKVLIKRWLKL-NH2 [BFmax-9, VIKVLIKRWLKL]",7.4%,–
VKGAIKRGIWVK-NH2 [Imax- 5],3%,–
"VQWIQIVVWRKR-NH2 [BFmax-6, VQWIQIVVWRKR]",−4.4%,–
"VRLIVAVRIWRR-NH2 [Peptide 1018, VRLIVAVRIWRR, reference compound]",21.8%,"percentage of biofilm inhibited (S. aureus (MRSA SAP0017); SPOT-synthesized peptide, ~2.5 μM, MRSA SAP0017): 31%; MIC (μM) MHB ([1]; broth microdilution in Mueller Hinton Broth (MHB)): 4 µM; MIC (μM) TSB with 1% Glucose ([1]; broth microdilution in Tryptic Soy Broth (TSB) supplemented with 1% glucose): >64 µM"
VRLIVOrnVRIWRR (VRLIV[Orn]VRIWRR-NH2; N-terminus assumed; SMILES CC[C@H](C)[C@H](NC(=O)[C@H](CCCNC(=N)N)NC(=O)[C@@H](NC(=O)[C@H](CCCN)NC(=O)[C@@H](NC(=O)[C@@H](NC(=O)[C@H](CC(C)C)NC(=O)[C@H](CCCNC(=N)N)NC(=O)[C@@H](N)C(C)C)[C@@H](C)CC)C(C)C)C(C)C)C(=O)N[C@@H](Cc1c[nH]c2ccccc12)C(=O)N[C@@H](CCCNC(=N)N)C(=O)N[C@@H](CCCNC(=N)N)C(N)=O) [Peptide 1018-k30],–,"% Residual MRSA biofilm growth compared to untreated control (S. aureus (MRSA SAP0017); SPOT synthesized peptide, ~12.5 μM, clinical MRSA strain, crystal violet assay): 27%"
"VVGLRVRWVRLW-NH2 [Imin-3, VVGLRVRWVRLW]",−4.3%,–
"WAVRALKVKWAL-NH2 [Imax-20, WAVRALKVKWAL]",−2.7%,–
"WWIKIVVIRVRR-NH2 [IBFmax-13, WWIKIVVIRVRR]",−2%,–
